In PMC7096398, “Oxytocin Receptors Regulate Social Preference in Zebrafish” (Scientific Reports, 2020):
“Also recorded” adds a separate entry of the source.

Columns and labels:
monkeys = conditions: cited from earlier work
[1] = cited from earlier work
OT receptor = conditions: cited from earlier work
Source text: Intriguingly, the non-peptidergic OT receptor antagonist L-368,8 ...

adult zebrafish [2] = assay: Novel tank diving in adult zebrafish; format: in vivo, zebrafish (Danio rerio)
Procedure: (§1) Adult and larval behavioural testing was performed between 9 AM and 4 PM. All fish were fed prior to and after experiments, and larvae were also given an additional feed at midday. Adult fish were of a 1:1 sex ratio, and focal fish and stimulus fish were size-matched. Adult fish and shoals were filmed using a web camera and Debut Video Capture Software (NCH Software, Greenwood Village, USA), and videos were analysed using EthoVision version 11 (Noldus, Wageningen, the Netherlands).
A novel tank diving test was executed individually in order to examine the effect of the antagonist on anxiety in zebrafish. Anxiety-like behaviour in zebrafish is evident in a tendency to move towards the bottom of novel environments. The novel tank diving test used here has been described elsewhere. In brief, the same procedure as for the shoaling test described above was used, except that fish were housed in groups of 4–6 individuals 24 hours prior to the experiment in order to keep netting and potential stress to a minimum, and each fish was placed the test tank individually. A total of 20 vehicle-treated fish and 20 antagonist-treated fish were tested.
(§2) All data for the social preference and novel tank diving experiments in adults were extracted as processed means per minute from EthoVision. For the shoaling experiments, raw data was exported from EthoVision, and then post-processed by an in-house script written in Python 3.4, in order to compute IFD, NND, and FND as described elsewhere. For timelines, repeated measures analysis of variance (RM-ANOVA) was used. For pairwise comparisons of total means between groups, Student’s T-tests were used.

adult zebrafish [3] = assay: Shoaling test in adult zebrafish; format: in vivo, zebrafish (Danio rerio)
Procedure: as §1
The shoaling test was performed to examine the effects of L-368,899 on social group behaviour, a test widely used to assess shoaling sensitivity to various drugs and experimental settings[75],[76].
The experimental setup comprised a 1.8 L trapezoidal tank (height 16 cm × length at the top 26 cm × length at the bottom 23 cm × width 6 cm, Aquaneering, San Diego, USA). Fifty-six zebrafish were randomly grouped into shoals of four (two males and two females) three days prior to the experiment. […] On day four all shoal members were weighed and injected with either fish Ringer’s (n = 6 shoals) or L-368,899 (n = 7 shoals), using the same procedure described above. Shoals were returned to their respective holding tanks for one hour to recover, and then gently transferred to test tanks, in which they were filmed for 15 minutes.
as §2

adult zebrafish [4] = assay: Social preference in adult zebrafish; format: in vivo, zebrafish (Danio rerio)
Procedure: as §1
The experimental setup comprised one large test tank (60 cm × 30 cm), and two smaller side tanks (15 cm × 30 cm) positioned at the short ends of the test tank; see Fig. 4. The test tank (the arena) was divided into five different zones used when tracking the video recordings, see Fig. 4. The zone closest to the stimuli shoal was always designated Zone 1, and the zone furthest away from the shoal was always designated Zone 5. […] All tanks were visually isolated from each other during the acclimation period of 10 minutes.
A stimulus shoal of eight zebrafish, with a 1:1 sex ratio, was placed in one of the side tanks, while the opposite side tank remained empty. Focal fish and shoal fish were selected to be of similar size in order not to evoke adverse reactions, such as anxiety or aggression. The experiments were thoroughly randomized between treatment groups for time of day and shoal used. The stimulus fish had been habituated to the room and aquarium for 24 hours prior to the start of the experiments. Two shoals were used as stimulus shoals throughout the experiment. The side for the stimulus shoal was alternated in order to avoid any potential place preference of the focal fish. The reasons for using two shoals for all focal fish were to decrease the behavioural variation in focal fish that may be caused by inter-shoal variations, to decrease the stress in stimulus fish caused by netting and transferring them between tanks that may be transferred to the focal fish, and to limit the number of fish used according to the 3 R principles. There were no statistical significant effects of day of testing (One-way ANOVA; p > 0.7), time of testing (One-way ANOVA; p > 0.5), or the identity of the stimulus shoal (shoal 1 versus shoal 2; un-paired t-test; p > 0.1) on the total time the focal fish spent in Zone 1 (closest to the shoal) during the 15 minutes test time.
At 24 hours prior to the experiment, zebrafish were weighed, placed into separate holding tanks, and brought to the experimental room in order to acclimatise. The following day fish were intraperitoneally injected with vehicle Ringer’s solution (13 females and 8 males), or the antagonist (11 females and 10 males). The Ringer’s solution recipe was retrieved from the Zebrafish Information Network (ZFIN, University of Oregon, Eugene, OR, USA).
Intraperitoneal injections were conducted using a 1 mL U-100 BD MicroFine™ Insulin Syringe (Becton Dickinson France S.A.S., France). Post injection, animals were placed into their holding tanks for one hour to recover. […] Following this, focal fish were individually placed in the middle of the test tank and left to freely move around for ten minutes (acclimation period) before visual partitions were removed, which initiated the start of the test period (15 minutes).
as §2

Structure (SMILES): Cc1ccccc1N1CCN(S(=O)(=O)C[C@]23CC[C@H](C[C@@H]2NC(=O)[C@@H](N)CCS(C)(=O)=O)C3(C)C)CC1 [L-368,899]
- Behavioural effects one hour after treatment (monkeys): robust behavioural effects
- half-life [1]: about 2 hours
- Inhibition of the OT receptor in mammals (OT receptor): specifically inhibit the mammalian OT receptor
- Anxiety behaviour: Distance to bottom (adult zebrafish [2]; adult novel tank diving, i.p., 1 h before test, mean ± SEM, n = 20, vehicle 2.7 ± 0.4): 3.1 ± 0.4 cm
- Locomotion: Velocity (adult zebrafish [2]; adult novel tank diving, i.p., 1 h before test, mean ± SEM, n = 20, vehicle 3.1 ± 0.2, p = 0.47): 2.9 ± 0.2 cm/s
- Anxiety behaviour: Duration in top zone (adult zebrafish [2]; adult novel tank diving, i.p., 1 h before test, mean ± SEM, n = 20, vehicle 7.0 ± 2.4): 8.8 ± 2.4 s/min
- Locomotion: Distance (adult zebrafish [2]; adult novel tank diving, i.p., 1 h before test, mean ± SEM, n = 20, vehicle 186 ± 11, p = 0.49): 174 ± 14 cm/min
- Anxiety behaviour: Latency to top zone (adult zebrafish [2]; adult novel tank diving, i.p., 1 h before test, mean ± SEM, n = 20, vehicle 327 ± 58): 387 ± 81 s
- Anxiety, in words (adult zebrafish [2]; adults, antagonist vs vehicle): did not affect anxiety; also recorded: no differences in any of the anxiety parameters
- Activity parameters vs vehicle, novel tank diving test (adult zebrafish [2]; average distance p = 0.49, average velocity p = 0.47): no significant differences
- Shoaling parameters vs vehicle, outlier vehicle shoal included (adult zebrafish [3]; IFD, NND, FND, including outlier shoal): no significant differences
- Social behaviour: Nearest neighbour distance (adult zebrafish [3]; adult shoaling, shoals of four, 100 µg per gram fish i.p., 1 h before 15 min test, mean ± SEM, n = 7 shoals, vehicle 3.3 ± 0.2): 3.7 ± 0.1 cm
- Social behaviour: Interfish distance (adult zebrafish [3]; adult shoaling, shoals of four, 100 µg per gram fish i.p., 1 h before 15 min test, mean ± SEM, n = 7 shoals, vehicle 5.9 ± 0.3): 6.7 ± 0.2 cm
- Social behaviour: Furthest neighbour distance (adult zebrafish [3]; adult shoaling, shoals of four, 100 µg per gram fish i.p., 1 h before 15 min test, mean ± SEM, n = 7 shoals, vehicle 8.7 ± 0.5): 9.8 ± 0.2 cm
- Locomotion: Velocity (adult zebrafish [3]; adult shoaling, shoals of four, 100 µg per gram fish i.p., 1 h before 15 min test, mean ± SEM, vehicle 3.6 ± 0.2, p = 0.30): 3.2 ± 0.3 cm/s
- Locomotion: Distance (adult zebrafish [3]; adult shoaling, shoals of four, 100 µg per gram fish i.p., 1 h before 15 min test, mean ± SEM, vehicle 207 ± 15, p = 0.37): 186 ± 17 cm/min
- Shoaling, in words (adult zebrafish [3]; adult zebrafish): potentially also shoaling behaviour; also recorded: tentative and small effect
- Activity parameters vs vehicle, shoaling test (adult zebrafish [3]; average distance p = 0.37, average velocity p = 0.30): no significant differences
- Inter-fish distance (IFD) vs vehicle, outlier excluded (adult zebrafish [3]; t(10) = 2.276, p = 0.046): significantly more spread out
- Nearest neighbour distance (NND) vs vehicle, outlier excluded (adult zebrafish [3]; t(10) = 2.324, p = 0.042): significantly more spread out
- Social preference in adults, in words (adult zebrafish [4]; 100 µg per gram fish i.p.): decreased social preference; also recorded: inhibits social preference
- Social preference in adults, in words (adult zebrafish [4]; 100 µg per gram fish i.p., listed as antagonist): did not completely abolish social preference
- Time in all the other zones vs vehicle (adult zebrafish [4]; 15 min test, 100 µg per gram fish i.p.): significantly more time
- Time in Zone 1 (closest to the shoal) vs vehicle (adult zebrafish [4]; 15 min test, 100 µg per gram fish i.p., t(39) = 3.339, p = 0.0016): significantly less time
- Distance from shoal vs vehicle (adult zebrafish [4]; 15 min test, F(1,39) = 10.79, p = 0.0022): significantly further away
- Social behaviour: Distance to shoal (adult zebrafish [4]; adult social preference, 100 µg per gram fish i.p., 1 h before test, mean ± SEM, vehicle 11.0 ± 1.8): 19.7 ± 1.9 cm
- Social behaviour: Social zone duration (adult zebrafish [4]; adult social preference, 100 µg per gram fish i.p., 1 h before test, mean ± SEM, vehicle 45.9 ± 2.3): 34.5 ± 2.4 s/min
- Locomotion: Distance (adult zebrafish [4]; adult social preference, 100 µg per gram fish i.p., 1 h before test, mean ± SEM, vehicle 528 ± 19, p = 0.25): 496 ± 20 cm/min
- Activity parameters vs vehicle, social preference test (adult zebrafish [4]; average distance p = 0.25, average velocity p = 0.32): no significant differences
- Approach to shoal, acclimation vs test period (adult zebrafish [4]; paired T-test, average distance to shoal, antagonist t(19) = 5.983, p = 9e-6): responded to the visual stimuli of a conspecific shoal
- Social preference, pilot experiment, 5 μg per gram fish (adult zebrafish [4]; pilot, 5 μg L-368,899 per gram fish): did not affect social preference
- Social preference, pilot experiment, 50 μg per gram fish (adult zebrafish [4]; pilot, 50 μg L-368,899 per gram fish): did not affect social preference
